# Measured values reported in US20260021061A1, “ARIADNE AND ANALOGS FOR THE TREATMENT OF NEUROLOGICAL AND NEUROMUSCLAR DISORDERS” (priority 2022, published 2026).
# Counter-ions that a name gives are not always drawn. Like-named read-outs stand apart in the source and are kept apart here.
# Assays:
# C57BL/6J mice [1] = assay: Open field locomotion in mice; type: in vivo, mouse
# C57BL/6J mice [2] = assay: Head twitch response (HTR) in mice; type: in vivo, mouse; conditions: s.c.
# Method: All samples were prepared the same day testing was performed. Solids were weighed into small vials and dissolved in USP grade 0.85% saline with addition of 2 molar equivalents of glacial acetic acid. Sonication and gentle heating were applied until complete dissolution. The compounds were subsequently filtered through 0.45 μm filters into a new glass vial. All compounds were administered at a 1 mg/kg subcutaneous dose at a volume of 10 mL/kg of body weight. Volinanserin hydrochloride salt (MDL 100907) was purchased from Toronto Research Chemicals.
# All experimental procedures involving animals were approved by an Institutional Animal Care and Use Committee (IACUC) and adhered to principles described in the National Institutes of Health Guide for the Care and Use of Laboratory Animals. The studies were conducted at AAALAC accredited facilities. Animals received regular veterinary care (weekly by institutional veterinarians) including daily health monitoring (by experimenters) of the animals (observing home cage behaviors, nesting, and body weight). All procedures were designed to minimize any stress/distress. Healthy adult male mice C57BL/6J (8-12 weeks, 26-33 g) were purchased from the Jackson Laboratory (Bar Harbor, ME) and housed 5 mice per cage with food and water available ad libitum. Mice were maintained on a 12-h light/dark cycle (lights on 7:00-19:00) and all testing was done in the light cycle. Temperature was kept constant at 22±2° C., and relative humidity was maintained at 50±5%
# The head-twitch response evaluation was performed by a trained observer who was blinded to both drug and dose. Mice were moved to the testing room 30 min before the experiment to allow for acclimation. The body weight of each mouse was recorded. Mice were administered either a 1, 3, 10, or 30 mg/kg s.c. dose of compound solution (volume of injection 260-330 μL based on body weight). […] The total number of head-twitches over the 15 minute period were recorded. Five mice were used per dose.
# DOI was tested at the doses of 0.3, 1, 3, and 10 mg/kg (s.c., 5 mice per dose) and testing began immediately after administration of the compound. Ariadne was tested at the doses of 1, 3, 10, and 30 mg/kg (s.c., 5 mice per dose) and there was a 10 min interval between treatment and testing.
# 5-HT2A [3] = target: T1, 5-HT2A (Homo sapiens, UniProt P28223); assay: Radioligand displacement assay; type: binding
# T1 sequence (P28223 whole entry): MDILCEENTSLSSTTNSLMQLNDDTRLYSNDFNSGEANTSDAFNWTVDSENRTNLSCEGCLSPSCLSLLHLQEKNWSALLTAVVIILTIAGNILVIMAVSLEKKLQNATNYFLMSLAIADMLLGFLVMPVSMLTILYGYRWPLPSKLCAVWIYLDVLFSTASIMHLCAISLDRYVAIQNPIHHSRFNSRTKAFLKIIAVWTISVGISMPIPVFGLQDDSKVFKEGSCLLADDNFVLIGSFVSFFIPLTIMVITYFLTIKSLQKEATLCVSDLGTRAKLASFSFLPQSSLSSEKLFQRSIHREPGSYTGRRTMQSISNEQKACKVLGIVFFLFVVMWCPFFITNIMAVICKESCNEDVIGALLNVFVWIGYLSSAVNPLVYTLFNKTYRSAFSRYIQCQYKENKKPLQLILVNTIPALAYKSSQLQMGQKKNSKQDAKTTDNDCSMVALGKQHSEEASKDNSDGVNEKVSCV
# Method: Therefore, an orthogonal assay measuring calcium flux was also performed for the 5-HT2 receptors (Klein et al., 2020).
# 5-HT2A [4] = target: T1, 5-HT2A; assay: IP1 agonism (IP1 formation assay), Cerep, Eurofins; type: cell-based; set-up: purchased Cerep, Eurofins (contract assay); conditions: duplicate averages only
# Excerpt: (§1) FIGS. 8A-B Comparison of 5-HT2A (a) and 5-HT2B (b) receptor in IP1 formation assay for selected compounds, performed at Cerep, Eurofins.
# (§2) IP1 agonism summary for selected compounds (duplicate averages only), performed at Cerep, Eurofins.
# 5-HT2B [5] = target: T2, 5-HT2B (Homo sapiens, UniProt P41595); assay: IP1 agonism (IP1 formation assay), Cerep, Eurofins; type: cell-based; set-up: purchased Cerep, Eurofins (contract assay); conditions: duplicate averages only
# T2 sequence (P41595 whole entry): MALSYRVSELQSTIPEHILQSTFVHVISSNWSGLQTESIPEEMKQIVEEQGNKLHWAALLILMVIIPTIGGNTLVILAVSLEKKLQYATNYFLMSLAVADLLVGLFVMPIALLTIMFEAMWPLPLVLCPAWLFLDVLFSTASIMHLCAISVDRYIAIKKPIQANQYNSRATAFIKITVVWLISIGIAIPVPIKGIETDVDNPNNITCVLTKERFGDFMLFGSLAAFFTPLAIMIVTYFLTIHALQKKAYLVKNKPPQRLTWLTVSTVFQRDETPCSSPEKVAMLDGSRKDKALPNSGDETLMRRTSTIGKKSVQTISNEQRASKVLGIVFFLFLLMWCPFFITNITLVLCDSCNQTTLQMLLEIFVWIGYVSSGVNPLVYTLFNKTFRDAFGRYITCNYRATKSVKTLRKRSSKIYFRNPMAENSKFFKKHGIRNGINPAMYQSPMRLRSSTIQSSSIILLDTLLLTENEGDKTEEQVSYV
# Excerpt: as §1, §2
# 5-HT2A [6] = target: T1, 5-HT2A; assay: G protein (Gq) dissociation BRET assay; type: cell-based; set-up: host or cells: HEK293T (ATCC CRL-11268)
# 5-HT2B [7] = target: T2, 5-HT2B; assay: G protein (Gq) dissociation BRET assay
# Method: (§3) All BRET assays were conducted using BRET2 in HEK293T cells (ATCC CRL-11268; mycoplasma-free), which were subcultured in high-glucose DMEM (VWR) supplemented with 10% FBS (Life Technologies).
# (§4) Constructs in G protein-dissociation BRET assays were derived from the codon-optimized Tango pcDNA3.1 library (Addgene) with V2tail/TEV/tTA encoding regions deleted to yield “de-Tango” constructs. […] All Gα-Rluc8, Beta, and GFP2-γ constructs were derived from the TRUPATH pcDNA5/FRT/TO library (Addgene).
# (§5) Approximately 48 hours before assays, cells were transfected using a reverse transfection method and plated in 1% dFBS at an approximate density of 15,000 cells per well into poly-L-lysine-coated 384-well white assay plates (Grenier Bio-One). For G protein-dissociation assays, cells were transfected in a 1:1:1:1 ratio of receptor: Gα-Rluc8: Beta: GFP2-γ constructs. […] All transfections were prepared in Opti-MEM (Invitrogen) and used a 3:1 ratio of TransIT-2020 (Mirus) uL:ug total DNA.
# (§6) On the day of the assay, plates were decanted and 20 uL of drug buffer per well (1×HBSS, 20 mM HEPES, pH 7.4) was added using a Multidrop (ThermoFisher Scientific), and plates were allowed to equilibrate at 37° C. in a humidified incubator before receiving drug stimulation. Drug dilutions of all compounds were performed in McCorvy buffer (1×HBSS, 20 mM HEPES, pH 7.4, supplemented with 0.3% BSA fatty acid free (GoldBio), and 0.03% ascorbic acid). […] Next, plates were incubated at 37° C. in a humidified incubator for 60 minutes or specified time point. Before reading, addition of coelenterazine 400a (5 uM final concentration; Nanolight Technology) was performed by the [sequence]. Immediately after, plates were read at 400 nm Rluc and fluorescent GFP2 emission at 510 nm for BRET2 at 0.8 second per well using a PheraStarFSX (BMB Lab Tech).
# (§7) The BRET ratios of 510/400 luminescence were calculated per well and were plotted as a function of drug concentration using Graphpad Prism 5 or 9 (Graphpad Software Inc., San Diego, CA). Data were normalized to % positive control stimulation and analyzed using nonlinear regression “log(agonist) vs. response” to yield Emax and EC50 parameter estimates.
# 5-HT2C receptor = target: T3, 5-HT2C receptor (Homo sapiens, UniProt P28335); assay: G protein (Gq) dissociation BRET assay; conditions: read-out: Emax/Gq
# T3 sequence (P28335 33-458): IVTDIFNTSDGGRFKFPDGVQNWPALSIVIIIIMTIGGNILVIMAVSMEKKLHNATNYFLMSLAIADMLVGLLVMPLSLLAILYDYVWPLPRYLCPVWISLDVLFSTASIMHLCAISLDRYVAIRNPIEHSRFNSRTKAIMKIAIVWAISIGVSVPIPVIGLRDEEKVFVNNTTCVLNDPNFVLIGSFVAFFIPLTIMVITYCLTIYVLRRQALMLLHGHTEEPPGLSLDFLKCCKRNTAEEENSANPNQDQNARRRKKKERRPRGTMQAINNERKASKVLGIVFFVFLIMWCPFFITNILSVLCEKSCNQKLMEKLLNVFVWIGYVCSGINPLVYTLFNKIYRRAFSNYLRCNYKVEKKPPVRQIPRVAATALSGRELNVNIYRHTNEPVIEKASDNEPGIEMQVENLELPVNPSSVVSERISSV
# Method: as §3, §4, §5, §6, §7
# humans = conditions: per oral administration; cited from earlier work
# [8] = EC50 (5-HT2B) (M), Table 7, IP1 agonism
# [9] = EC50 (5-HT2A) (M), Table 7, IP1 agonism
smiles,measurement,setting,value
"CCCc1cc(OC)c(CC(C)N)cc1OC (racemic) [Compound 44, 1-(2,5-dimethoxy-4-propylphenyl) propan-2-amine, reference compound]",time in the center of the arena,C57BL/6J mice [1]; open field,trend for spending less time in the center
same,effects on locomotion,"C57BL/6J mice [1]; s.c., trending toward increased locomotion at HTR peak dose (1 mg/kg)",minor to no effects on locomotion
same,HTR response,C57BL/6J mice [2],robust dose-dependent HTR response
same,dose of maximum (peak) HTR,C57BL/6J mice [2],1 mg/kg
same,time to maximum HTR frequency post-drug administration,C57BL/6J mice [2],10 min
CC[C@H](N)Cc1cc(OC)c(C)cc1OC [(S)-Ariadne],Ki,5-HT2A [3],220 nM
"CCC(N)Cc1cc(OC)c(C#N)cc1OC (centres unmarked) [Compound 4, 4-(2-aminobutyl)-2,5-dimethoxybenzonitrile trifluoroacetate]",EC50,"5-HT2A [4]; 5-HT2a (IP1 agonism), Table 2",1.1e-05 M
"CCSc1cc(OC)c(CC(N)CC)cc1OC (centres unmarked) [Compound 27, 1-(4-(ethylthio)-2,5-dimethoxyphenyl)butan-2-amine]",EC50,"5-HT2B [5]; 5-HT2b (IP1 agonism), Table 2",6.3e-07 M
same,EC50,"5-HT2A [4]; 5-HT2a (IP1 agonism), Table 2",5.3e-08 M
"CCC(N)Cc1cc(OC)c(SC)cc1OC (centres unmarked) [Compound 28, 1-(2,5-dimethoxy-4-(methylthio)phenyl)butan-2-amine]",EC50,"5-HT2B [5]; 5-HT2b (IP1 agonism), Table 2",6.6e-08 M
same,EC50,"5-HT2A [4]; 5-HT2a (IP1 agonism), Table 2",1.6e-07 M
"CCC(N)Cc1cc(OC)c(C2CC2)cc1OC (centres unmarked) [Compound 30, 1-(4-cyclopropyl-2,5-dimethoxyphenyl)butan-2-amine]",EC50,"5-HT2A [4]; 5-HT2a (IP1 agonism), Table 2",3.7e-06 M
"CCC(N)Cc1cc(OC)c(Br)cc1OC (centres unmarked) [Compound 31, 1-(4-bromo-2,5-dimethoxyphenyl)butan-2-amine]",EC50,"5-HT2B [5]; 5-HT2b (IP1 agonism), Table 2",5.5e-06 M
same,EC50,"5-HT2A [4]; 5-HT2a (IP1 agonism), Table 2",9e-08 M
"CCC(N)Cc1cc(OC)c(S(C)(=O)=O)cc1OC (centres unmarked) [Compound 33, 1-(2,5-dimethoxy-4-(methylsulfonyl)phenyl)butan-2-amine trifluoroacetate]",EC50,"5-HT2B [5]; 5-HT2b (IP1 agonism), Table 2",2.5e-05 M
same,EC50,"5-HT2A [4]; 5-HT2a (IP1 agonism), Table 2",3.4e-06 M
"CCC(N)Cc1cc(OC)c(I)cc1OC (centres unmarked) [Compound 34, 1-(4-iodo-2,5-dimethoxyphenyl)butan-2-amine]",EC50,"5-HT2A [6]; EC50 (EC50/Gq), Gq dissociation, Gq dissociation BRET",16 nM
same,increase in Gq potency compared to Ariadne,5-HT2A [6]; EC50/Gq comparison,> 10 fold
same,EC50,"5-HT2B [5]; 5-HT2b (IP1 agonism), Table 2",1.8e-05 M
same,EC50,"5-HT2A [4]; 5-HT2a (IP1 agonism), Table 2",9.7e-06 M
"CCc1cc(OC)c(CC(N)CC)cc1OC (centres unmarked) [Compound 35, 1-(4-ethyl-2,5-dimethoxyphenyl)butan-2-amine]",EC50,"5-HT2B [5]; 5-HT2b (IP1 agonism), Table 2",5.7e-07 M
same,EC50,"5-HT2A [4]; 5-HT2a (IP1 agonism), Table 2",1.9e-06 M
"CCOc1cc(CC(N)CC)c(OC)cc1C(F)(F)F (centres unmarked) [Compound 36, 1-(5-ethoxy-2-methoxy-4-(trifluoromethyl)phenyl)butan-2-amine]",EC50,"5-HT2B [5]; 5-HT2b (IP1 agonism), Table 2",9.5e-07 M
same,EC50,"5-HT2A [4]; 5-HT2a (IP1 agonism), Table 2",2.8e-07 M
"CCC(N)Cc1cc(OC)c(COC)cc1OC (centres unmarked) [Compound 37, 1-(2,5-dimethoxy-4-(methoxymethyl)phenyl)butan-2-amine]",potency at 5-HT2B compared to Ariadne,5-HT2B [7]; Gq dissociation,twice as potent
same,Emax,5-HT2B [7]; read-out: Emax/Gq,43%
same,less potent at 5-HT2A compared to Ariadne,5-HT2A [6]; Gq dissociation,approximately 2 fold
same,Emax,"5-HT2A [6]; Gq dissociation BRET, normalized to 5-HT, read-out: Emax (Emax/Gq) relative to 5-HT",78%
same,Emax,5-HT2C receptor,82%
same,HTR response,C57BL/6J mice [2],only residual HTR
"COc1cc(CC(N)C2CC2)c(OC)cc1C (centres unmarked) [Compound 38, 1-cyclopropyl-2-(2,5-dimethoxy-4-methylphenyl)ethan-1-amine]",EC50,"5-HT2B [5]; Table 2, read-out: 5-HT2b (IP1 agonism)",2.1e-05 M
same,EC50,"5-HT2A [4]; Table 2, read-out: 5-HT2a (IP1 agonism)",9.7e-06 M
"CCCC(N)Cc1cc(OC)c(C)cc1OC (centres unmarked) [Compound 39, 1-(2,5-dimethoxy-4-methylphenyl) pentan-2-amine]",HTR response,C57BL/6J mice [2],indistinguishable from vehicle
same,EC50,"5-HT2B [5]; 5-HT2b (IP1 agonism), Table 2",2.3e-05 M
"CCC(N)Cc1c(OC)cc(C)cc1OC (centres unmarked) [Compound 40, 1-(2,6-dimethoxy-4-methylphenyl)butan-2-amine]",EC50,"5-HT2A [4]; 5-HT2a (IP1 agonism), Table 2",1e-05 M
"CCC(N)Cc1cc(OC)c(Cl)cc1OC (centres unmarked) [Compound 41, 1-(4-chloro-2,5-dimethoxyphenyl)butan-2-amine]",EC50,"5-HT2B [5]; 5-HT2b (IP1 agonism), Table 2",1.4e-05 M
same,EC50,"5-HT2A [4]; 5-HT2a (IP1 agonism), Table 2",1.9e-07 M
"CCCc1cc(OC)c(CC(N)CC)cc1OC (centres unmarked) [Compound 42, 1-(2,5-dimethoxy-4-propylphenyl)butan-2-amine]",EC50,"5-HT2A [4]; 5-HT2a (IP1 agonism), Table 2",2.1e-07 M
"CCC(N)Cc1cc(OC)c(C(C)(F)F)cc1OC (centres unmarked) [Compound 50, 1-(4-(1,1-difluoroethyl)-2,5-dimethoxyphenyl)butan-2-amine]",EC50,5-HT2B [5]; [8],1.1e-07 M
same,EC50,5-HT2A [4]; [9],2.5e-08 M
"CCC(N)Cc1cc(OC)c(C(F)(F)CC)cc1OC (centres unmarked) [Compound 53, 1-(4-(1,1-difluoropropyl)-2,5-dimethoxyphenyl)butan-2-amine]",EC50,5-HT2B [5]; [8],1.9e-07 M
same,EC50,5-HT2A [4]; [9],5.7e-08 M
"CCC(N)Cc1cc(OC)c(CC(C)(F)F)cc1OC (centres unmarked) [Compound 58, 1-(4-(2,2-difluoropropyl)-2,5-dimethoxyphenyl)butan-2-amine]",EC50,5-HT2A [4]; [9],4.3e-06 M
"COc1cc(CC(C)N)c(OC)cc1C (centres unmarked) [DOM, 2,5 Dimethoxy-4-methylamphetamine, reference compound]",potency in humans relative to mescaline,humans,approximately 100 times
